# Results taken from article PMC5958115, “A novel small molecule chaperone of rod opsin and its potential therapy for retinal degeneration” (Nature Communications, 2018).
# Tests used:
# human clarin-1 N48K = target: T1, human clarin-1 N48K (Homo sapiens, UniProt P58418, N48K); assay: Image-based analysis of Clarin-1-N48K-Venus in HEK 293 cells; type: cell-based; conditions: 24 h
# T1 construct: expressed in transfected cells
# Experimental: HEK 293 stable cells co-expressing human clarin-1 N48K-Venus fluorescent protein and DsRed-Express-DR fusion protein were obtained from Dr. Yoshikazu Imanishi at Case Western Reserve University (CWRU). Cells were cultured in DMEM medium with 10% FBS following guidelines from ATCC. To test effects of YC-001 treatments on clarin-1 N48K-Venus amounts in these cells, an image-based assay was performed. Briefly, cells were seeded at 20,000 cells per well in 40 µL per well DMEM medium with 10% FBS in a 384-well PerkinElmer View plate coated with poly-D-lysine and cultured at 37 °C with 5% CO2 for 24 h. Cells then were treated with 10 µL per well DMEM medium with 10% FBS containing 5× the final concentration of tested compounds. […] Each compound was tested with 10 doses in a twofold dilution series, featuring three biological replicates. The 384-well plate was put back for incubation at 37 °C with 5% CO2. After 24 h of exposure to test compounds, the plate was removed, and the medium was aspirated and replaced by 20 µL per well of 4% paraformaldehyde for fixation at RT for 20 min. […] Images were analyzed by the Columbus storage and analysis system (PerkinElmer). Hoechst33342 fluorescence images were used to define nuclei and count cells. […] YFP and DsRed fluorescence intensities per cell were measured in each well.
# [1] = system: S. typhimurium TA1535, TA97a, TA98, TA100 and E. coli WP2; assay: Micro Ames bacterial mutation test, five strains, with or without S9; conditions: 0.075-250 µg per well
# Experimental: To determine the potential genotoxicity of YC-001, a Micro Ames test was performed by the Charles River Laboratories, Inc. The S9 microsomal fraction was obtained from Moltox Molecular Toxicology, Inc. (Boone, NC, USA). A premixture was prepared including 25 µL of S9 mix (10% v/v S9 fraction in 8 mM MgCl2, 33 mM KCl, 100 mM sodium phosphate buffer, pH 7.4, +S9) or phosphate buffer (0.2 M sodium phosphate, pH 7.4, no S9), 5 µL of bacterial culture (>1000 × 10^6 bacteria mL^−1) and 100 µL of molten top agar supplemented with 0.05 mM biotin and minimal histidine (0.05 mM) and minimal tryptophan (0.05 mM). The 24-well plates were prepared by adding 1.3 mL of minimal bottom agar (1.3% agar, Vogel-Bonner medium E and 0.25% glucose) to each well. A 10 µL aliquot of YC-001 working solution/negative/positive control was added to each well followed by addition of 130 µL of the premixture. The plates kept on a leveled surface for 1 h while the top agar solidified, then were incubated at 37 °C for 72 h. After this period, plates were stored at 4 °C before revertant colony counts were manually recorded using an inverted microscope. […]
# C57BL/6 mice = assay: Retinoid cycle analysis: 11-cis-retinyl-oxime recovery after bleaching; type: in vivo, mouse; conditions: 200 mg kg^−1 bw i.p. 30 min before 10,000 lux 10 min; vs DMSO
# Experimental: To test if treatment with YC-001 affects visual pigment regeneration, we quantified the 11-cis-retinyl-oxime extracted from retinas of C57BL/6 mice after different periods of dark adaptation following exposure to bright light. Mice at 6 weeks of age were administered YC-001 at 200 mg kg^−1 bw via i.p. injection. At 30 min following YC-001 administration, eyes were dilated with 1% tropicamide. Mice then were anesthetized with a cocktail containing 20 mg mL^−1 of ketamine and 1.75 mg mL^−1 of xylazine at a dose of 4 μL g^−1 bw. Anesthetized mice were exposed to bright light with an intensity of 10,000 lux for 10 min to bleach about 90% of the rhodopsin pigment. Mice then were returned to the dark for recovery. Animals then were euthanized at 0, 2, 4, 6 or 24 h after bleaching and recovery in the dark, and their eyes were removed and homogenized in 1 mL of 1:1 PBS:ethanol mixture (v/v) containing 40 mM hydroxylamine. […] 11-cis-Retinyl-oxime released from the regenerated rhodopsin pigments were separated on an Agilent Sil column (5 µm, 4.6 × 250 mm) with an isocratic flow of 10% ethyl acetate in hexanes (1.5 mL min^−1) and detected at 325 nm. Amounts of 11-cis-retinyl-oximes per eye were quantified by normalizing the peak area to an 11-cis-retinyl-oxime standard. 11-cis-Retinyl-oximes were quantified in three eye samples per condition, and the means and s.d.s were calculated.
# T1 sequence (P58418 whole entry N48K): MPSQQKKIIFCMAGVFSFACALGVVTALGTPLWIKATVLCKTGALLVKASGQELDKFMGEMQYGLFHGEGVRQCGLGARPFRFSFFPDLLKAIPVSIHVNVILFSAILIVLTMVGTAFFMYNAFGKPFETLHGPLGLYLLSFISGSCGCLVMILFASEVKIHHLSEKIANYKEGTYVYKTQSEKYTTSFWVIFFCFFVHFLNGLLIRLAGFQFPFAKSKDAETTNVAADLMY
structure (smiles),measurement,setting,value
O=C1OCC(c2ccc(Cl)s2)=C1c1cccs1 [YC-001],effect on amount or stability of the clarin-1 N48K mutant,human clarin-1 N48K,did not affect the amount or stability
same,Ames test result,[1],negative
same,recovery of 11-cis-retinyl-oxime after bleaching,C57BL/6 mice,little difference
